Results from the kinase profiling compilation of Christmann-Franck et al. (2016).

Experiments:
AKT1 (human) = AKT1 (human) (UniProt P31749); conditions: compound 1.0 µM; ATP 100 µM
CHEK1 (human) = CHEK1 (human) (UniProt O14757); conditions: ATP 100 µM
[1] = target: CSNK2A1 or CSNK2A2 (human) (UniProt P19784+P68400); conditions: ATP 100 µM
GSK3B (human) = GSK3B (human) (UniProt P49841); conditions: ATP 100 µM
LCK (human) = LCK (human) (UniProt P06239); conditions: ATP 100 µM
MAP2K1 (rabbit) = conditions: compound 1.0 µM; accession and sequence are those of the human protein
MAPK12 (human) = MAPK12 (human) (UniProt P53778); conditions: ATP 100 µM
Sequence of MAPK12 (human) (P53778 whole entry, looked up): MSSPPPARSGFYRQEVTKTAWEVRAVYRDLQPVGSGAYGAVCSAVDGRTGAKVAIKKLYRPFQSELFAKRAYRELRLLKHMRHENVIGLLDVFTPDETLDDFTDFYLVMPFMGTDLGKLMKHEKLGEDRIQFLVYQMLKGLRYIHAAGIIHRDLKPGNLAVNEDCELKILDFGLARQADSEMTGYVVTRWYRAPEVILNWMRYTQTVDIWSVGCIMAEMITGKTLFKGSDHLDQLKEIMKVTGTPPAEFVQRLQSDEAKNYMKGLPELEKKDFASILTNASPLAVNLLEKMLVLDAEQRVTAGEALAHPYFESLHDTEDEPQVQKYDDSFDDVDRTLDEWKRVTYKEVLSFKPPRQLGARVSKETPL

MAPK8 (human) = MAPK8 (human) (UniProt P45983); conditions: ATP 100 µM
Sequence of MAPK8 (human) (P45983 whole entry, looked up): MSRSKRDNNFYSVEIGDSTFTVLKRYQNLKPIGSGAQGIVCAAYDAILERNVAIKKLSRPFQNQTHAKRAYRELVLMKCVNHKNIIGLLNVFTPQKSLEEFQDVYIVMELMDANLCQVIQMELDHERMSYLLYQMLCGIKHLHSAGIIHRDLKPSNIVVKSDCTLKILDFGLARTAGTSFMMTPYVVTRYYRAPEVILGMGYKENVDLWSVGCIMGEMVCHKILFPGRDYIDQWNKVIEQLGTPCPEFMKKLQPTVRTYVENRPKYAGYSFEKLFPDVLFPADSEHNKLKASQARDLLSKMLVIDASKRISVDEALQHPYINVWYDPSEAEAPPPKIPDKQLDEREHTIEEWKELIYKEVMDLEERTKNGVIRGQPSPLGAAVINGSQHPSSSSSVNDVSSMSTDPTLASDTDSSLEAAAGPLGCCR

MAPKAPK2 (human) = MAPKAPK2 (human) (UniProt P49137); conditions: ATP 100 µM
Sequence of MAPKAPK2 (human) (P49137 whole entry, looked up): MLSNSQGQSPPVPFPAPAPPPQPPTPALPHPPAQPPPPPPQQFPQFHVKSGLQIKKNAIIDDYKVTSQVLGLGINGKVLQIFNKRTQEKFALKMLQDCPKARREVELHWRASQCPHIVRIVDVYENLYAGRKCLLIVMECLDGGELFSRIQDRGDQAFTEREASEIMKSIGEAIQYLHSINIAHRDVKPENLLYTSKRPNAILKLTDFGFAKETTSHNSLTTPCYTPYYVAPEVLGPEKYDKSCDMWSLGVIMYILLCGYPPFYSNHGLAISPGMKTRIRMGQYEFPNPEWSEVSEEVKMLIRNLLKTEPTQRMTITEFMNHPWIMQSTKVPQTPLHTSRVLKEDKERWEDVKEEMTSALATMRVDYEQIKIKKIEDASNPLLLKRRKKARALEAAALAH

PDPK1 (human) = PDPK1 (human) (UniProt O15530); conditions: ATP 100 µM
Sequence of PDPK1 (human) (O15530 whole entry, looked up): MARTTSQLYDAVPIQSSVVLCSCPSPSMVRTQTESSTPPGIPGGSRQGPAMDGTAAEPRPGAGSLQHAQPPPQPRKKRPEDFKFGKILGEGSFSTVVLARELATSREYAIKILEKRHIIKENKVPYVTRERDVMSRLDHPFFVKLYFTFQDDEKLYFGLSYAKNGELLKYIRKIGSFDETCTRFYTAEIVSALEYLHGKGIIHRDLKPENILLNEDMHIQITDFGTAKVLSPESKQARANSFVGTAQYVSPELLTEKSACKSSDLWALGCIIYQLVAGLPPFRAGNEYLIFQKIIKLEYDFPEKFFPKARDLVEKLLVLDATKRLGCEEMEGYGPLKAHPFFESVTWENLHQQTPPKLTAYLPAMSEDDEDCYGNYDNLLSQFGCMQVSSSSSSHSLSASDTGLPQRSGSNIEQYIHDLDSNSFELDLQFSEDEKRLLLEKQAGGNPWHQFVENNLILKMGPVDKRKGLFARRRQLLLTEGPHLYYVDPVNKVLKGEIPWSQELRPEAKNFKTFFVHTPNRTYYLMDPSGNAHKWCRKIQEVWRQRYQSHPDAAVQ

PRKCA (human) = PRKCA (human) (UniProt P17252); conditions: ATP 100 µM
ROCK2 (rat) = conditions: accession and sequence are those of the human protein
RPS6KA5 KD1 KD2 (human) = RPS6KA5 KD1 KD2 (human) (UniProt O75582); conditions: ATP 100 µM
[2] = tested on: RPS6KB1 (human), P23443 [T412E]; conditions: ATP 100 µM
Sequence of RPS6KB1 (human), P23443 [T412E] (P23443 whole entry T412E, looked up): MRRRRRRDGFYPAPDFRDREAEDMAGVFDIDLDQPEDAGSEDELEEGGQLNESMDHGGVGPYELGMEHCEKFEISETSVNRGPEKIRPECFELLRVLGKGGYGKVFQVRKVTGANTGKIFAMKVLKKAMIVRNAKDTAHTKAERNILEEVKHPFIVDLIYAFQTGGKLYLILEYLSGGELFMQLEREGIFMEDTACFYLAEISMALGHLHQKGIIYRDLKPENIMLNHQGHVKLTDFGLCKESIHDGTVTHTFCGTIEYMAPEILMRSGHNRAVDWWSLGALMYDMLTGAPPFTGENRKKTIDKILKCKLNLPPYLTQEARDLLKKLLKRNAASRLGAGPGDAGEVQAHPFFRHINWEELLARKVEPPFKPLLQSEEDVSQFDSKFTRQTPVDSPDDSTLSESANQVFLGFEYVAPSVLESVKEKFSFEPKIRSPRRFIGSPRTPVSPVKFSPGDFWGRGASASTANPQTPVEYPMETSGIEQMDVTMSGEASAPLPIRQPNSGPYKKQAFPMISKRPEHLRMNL

[3] = tested on: SGK1 (human), O00141 [S422D]; conditions: ATP 100 µM
Sequence of SGK1 (human), O00141 [S422D] (O00141 whole entry S422D, looked up): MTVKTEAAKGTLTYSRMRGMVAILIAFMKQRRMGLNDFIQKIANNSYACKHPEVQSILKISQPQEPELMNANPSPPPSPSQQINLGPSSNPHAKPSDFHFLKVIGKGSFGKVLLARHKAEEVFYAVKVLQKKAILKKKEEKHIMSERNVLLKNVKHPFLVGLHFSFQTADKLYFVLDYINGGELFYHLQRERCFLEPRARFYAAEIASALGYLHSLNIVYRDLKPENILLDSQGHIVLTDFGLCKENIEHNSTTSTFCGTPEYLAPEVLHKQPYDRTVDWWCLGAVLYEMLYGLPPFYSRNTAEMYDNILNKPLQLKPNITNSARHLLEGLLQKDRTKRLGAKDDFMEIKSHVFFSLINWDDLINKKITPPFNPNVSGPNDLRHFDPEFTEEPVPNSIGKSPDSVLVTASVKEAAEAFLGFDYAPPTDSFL

PHKG1 or PHKG2 (rabbit) [4] = assay: radiometric filter-binding kinase assay; conditions: compound 1.0 µM; ATP 100 µM; accession and sequence are those of the human protein
PRKAA1 or PRKAA2 (rat) [5] = assay: radiometric filter-binding kinase assay; conditions: compound 1.0 µM; ATP 100 µM; accession and sequence are those of the human protein
PRKACA or PRKACB (cow) [6] = assay: radiometric filter-binding kinase assay; conditions: compound 1.0 µM; accession and sequence are those of the human protein
MAP2K3 (human) = MAP2K3 (human) (UniProt P46734); conditions: compound 10.0 µM; ATP 100 µM
MAP2K4 (human) = MAP2K4 (human) (UniProt P45985); conditions: compound 10.0 µM; ATP 100 µM
MAP2K6 (human) = MAP2K6 (human) (UniProt P52564); conditions: compound 10.0 µM; ATP 100 µM
MAP2K7 (human) = MAP2K7 (human) (UniProt O14733); conditions: compound 10.0 µM; ATP 100 µM
MAPK1 (mouse) = conditions: compound 10.0 µM; accession and sequence are those of the human protein
MAPK11 (human) = MAPK11 (human) (UniProt Q15759); conditions: ATP 100 µM
MAPK13 (human) = MAPK13 (human) (UniProt O15264); conditions: ATP 100 µM
PHKG1 or PHKG2 (rabbit) [7] = conditions: compound 10.0 µM; accession and sequence are those of the human protein
PRKAA1 or PRKAA2 (rat) [8] = conditions: compound 10.0 µM; accession and sequence are those of the human protein
PRKACA or PRKACB (cow) [9] = conditions: compound 10.0 µM; accession and sequence are those of the human protein
RPS6KA3 KD1 KD2 (rabbit) [10] = conditions: compound 10.0 µM; accession and sequence are those of the human protein
[11] = target: CAMK2A or CAMK2B or CAMK2D or CAMK2G (human) (UniProt Q13555+Q13557+Q9UQM7+Q13554); conditions: compound 1.0 µM; ATP 100 µM
MAPK14 (human) = MAPK14 (human) (UniProt Q16539); conditions: compound 1.0 µM; ATP 100 µM
MAPKAPK5 (human) = MAPKAPK5 (human) (UniProt Q8IW41); conditions: compound 1.0 µM; ATP 100 µM
RPS6KA3 KD1 KD2 (rabbit) [12] = assay: radiometric filter-binding kinase assay; conditions: compound 1.0 µM; ATP 100 µM; accession and sequence are those of the human protein
MYLK (chicken) [13] = conditions: accession and sequence are those of the human protein
PIK3CG (cow) = conditions: compound 1.0 µM; accession and sequence are those of the human protein
MYLK (chicken) [14] = assay: radiometric filter-binding kinase assay; conditions: compound 1.0 µM; accession and sequence are those of the human protein
MYLK2 (rabbit) = assay: radiometric filter-binding kinase assay; conditions: compound 1.0 µM; ATP 100 µM; accession and sequence are those of the human protein

Sequence of LCK (human) (P06239 whole entry, looked up): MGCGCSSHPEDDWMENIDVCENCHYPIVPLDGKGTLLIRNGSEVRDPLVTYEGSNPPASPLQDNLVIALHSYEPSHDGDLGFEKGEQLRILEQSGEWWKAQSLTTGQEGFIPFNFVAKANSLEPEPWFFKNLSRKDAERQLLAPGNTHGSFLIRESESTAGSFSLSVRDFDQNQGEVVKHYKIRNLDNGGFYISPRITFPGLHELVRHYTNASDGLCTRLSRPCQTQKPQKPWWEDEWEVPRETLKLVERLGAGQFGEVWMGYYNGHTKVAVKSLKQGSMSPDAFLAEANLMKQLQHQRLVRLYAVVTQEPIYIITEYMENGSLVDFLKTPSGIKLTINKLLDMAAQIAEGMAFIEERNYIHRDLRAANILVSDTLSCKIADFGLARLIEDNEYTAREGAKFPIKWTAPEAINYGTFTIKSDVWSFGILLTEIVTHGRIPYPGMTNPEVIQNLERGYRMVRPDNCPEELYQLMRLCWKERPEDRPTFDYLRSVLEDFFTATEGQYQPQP
Sequence of AKT1 (human) (P31749 whole entry, looked up): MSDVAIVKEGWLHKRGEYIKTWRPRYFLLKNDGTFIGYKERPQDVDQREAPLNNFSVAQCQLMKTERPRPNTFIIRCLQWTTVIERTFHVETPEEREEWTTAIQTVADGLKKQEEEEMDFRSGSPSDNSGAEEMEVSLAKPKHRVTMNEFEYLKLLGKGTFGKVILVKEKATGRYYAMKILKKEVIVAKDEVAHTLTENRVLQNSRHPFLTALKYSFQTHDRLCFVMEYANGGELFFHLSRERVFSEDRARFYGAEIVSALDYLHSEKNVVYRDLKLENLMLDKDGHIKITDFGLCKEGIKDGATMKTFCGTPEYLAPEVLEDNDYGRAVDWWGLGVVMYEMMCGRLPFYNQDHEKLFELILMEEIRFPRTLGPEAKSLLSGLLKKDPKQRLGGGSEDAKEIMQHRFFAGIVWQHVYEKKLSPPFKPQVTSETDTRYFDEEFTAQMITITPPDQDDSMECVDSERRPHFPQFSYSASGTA
Sequence of GSK3B (human) (P49841 whole entry, looked up): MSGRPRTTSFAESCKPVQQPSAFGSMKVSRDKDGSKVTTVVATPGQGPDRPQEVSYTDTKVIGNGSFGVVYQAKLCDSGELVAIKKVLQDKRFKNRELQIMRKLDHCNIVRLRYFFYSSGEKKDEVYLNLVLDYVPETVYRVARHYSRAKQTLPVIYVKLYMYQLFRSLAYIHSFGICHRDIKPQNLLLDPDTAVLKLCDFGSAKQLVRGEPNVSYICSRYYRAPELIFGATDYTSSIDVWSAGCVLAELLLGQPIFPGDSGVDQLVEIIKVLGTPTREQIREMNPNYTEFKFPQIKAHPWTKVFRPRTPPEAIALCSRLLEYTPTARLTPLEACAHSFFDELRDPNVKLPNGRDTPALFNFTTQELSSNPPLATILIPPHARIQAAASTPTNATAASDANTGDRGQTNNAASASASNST

With `CO[C@H]1CC2CC[C@@H](C)[C@@](O)(O2)C(=O)C(=O)N2CCCC[C@H]2C(=O)OC([C@H](C)C[C@@H]2CC[C@@H](O)[C@H](OC)C2)CC(=O)[C@H](C)/C=C(\C)[C@@H](O)[C@@H](OC)C(=O)[C@H](C)C[C@H](C)/C=C/C=C/C=C/1C` (some centres not stated) the residual activity (AKT1 (human)) was 91%, the residual activity (CHEK1 (human); compound 1.0 µM) was 102% and the residual activity ([1]; compound 1.0 µM) was 104%. For the same molecule, the residual activity (GSK3B (human); compound 1.0 µM) was 89%, the residual activity (LCK (human); compound 1.0 µM) was 102% and the residual activity (MAP2K1 (rabbit)) was 99%. For the same molecule, the residual activity (MAPK12 (human); compound 1.0 µM) was 100%, the residual activity (MAPK8 (human); compound 1.0 µM) was 98% and the residual activity (MAPKAPK2 (human); compound 1.0 µM) was 125%. For the same molecule, the residual activity (PDPK1 (human); compound 1.0 µM) was 110%, the residual activity (PRKCA (human); compound 1.0 µM) was 99% and the residual activity (ROCK2 (rat); compound 1.0 µM) was 92%. The residual activity (RPS6KA5 KD1 KD2 (human); compound 1.0 µM) was 104%, the residual activity ([2]; compound 1.0 µM) was 109% and the residual activity ([3]; compound 1.0 µM) was 108%. It also gave a residual activity (PHKG1 or PHKG2 (rabbit) [4]) of 103%, a residual activity (PRKAA1 or PRKAA2 (rat) [5]) of 106% and a residual activity (PRKACA or PRKACB (cow) [6]) of 104%.
For `N#CC(=C(\N)Sc1ccccc1N)/C(C#N)=C(/N)Sc1ccccc1N`, the residual activity (CHEK1 (human); compound 10.0 µM) was 95%, the residual activity ([1]; compound 10.0 µM) was 107% and the residual activity (GSK3B (human); compound 10.0 µM) was 105%. It also gave a residual activity (LCK (human); compound 10.0 µM) of 87%, a residual activity (MAP2K3 (human)) of 114% and a residual activity (MAP2K4 (human)) of 81%. For the same molecule, the residual activity (MAP2K6 (human)) was 79%, the residual activity (MAP2K7 (human)) was 89% and the residual activity (MAPK1 (mouse)) was 92%. The residual activity (MAPK11 (human); compound 10.0 µM) was 90%, the residual activity (MAPK12 (human); compound 10.0 µM) was 100% and the residual activity (MAPK13 (human); compound 10.0 µM) was 111%. For the same molecule, the residual activity (MAPK8 (human); compound 10.0 µM) was 96%, the residual activity (MAPKAPK2 (human); compound 10.0 µM) was 102% and the residual activity (PDPK1 (human); compound 10.0 µM) was 99%. The residual activity (PHKG1 or PHKG2 (rabbit) [7]) was 101%, the residual activity (PRKAA1 or PRKAA2 (rat) [8]) was 85% and the residual activity (PRKACA or PRKACB (cow) [9]) was 95%. It also gave a residual activity (PRKCA (human); compound 10.0 µM) of 92%, a residual activity (ROCK2 (rat); compound 10.0 µM) of 94% and a residual activity (RPS6KA3 KD1 KD2 (rabbit) [10]) of 88%. For the same molecule, the residual activity (RPS6KA5 KD1 KD2 (human); compound 10.0 µM) was 104%, the residual activity ([2]; compound 10.0 µM) was 92% and the residual activity ([3]; compound 10.0 µM) was 91%.
`CN[C@@H]1C[C@@H]2O[C@@](C)([C@@H]1OC)n1c3ccccc3c3c4c(c5c6ccccc6n2c5c31)C(=O)N[C@@H]4O` showed a residual activity (AKT1 (human)) of 31%, a residual activity [11] of 69% and a residual activity (CHEK1 (human); compound 1.0 µM) of 3%. For the same molecule, the residual activity ([1]; compound 1.0 µM) was 77%, the residual activity (GSK3B (human); compound 1.0 µM) was 83% and the residual activity (LCK (human); compound 1.0 µM) was 7%. The residual activity (MAP2K1 (rabbit)) was 90%, the residual activity (MAPK12 (human); compound 1.0 µM) was 76% and the residual activity (MAPK13 (human); compound 1.0 µM) was 91%. The residual activity (MAPK14 (human)) was 92%, the residual activity (MAPK8 (human); compound 1.0 µM) was 98% and the residual activity (MAPKAPK2 (human); compound 1.0 µM) was 90%. For the same molecule, the residual activity (MAPKAPK5 (human)) was 77%, the residual activity (PDPK1 (human); compound 1.0 µM) was 0% and the residual activity (PRKCA (human); compound 1.0 µM) was 1%. The residual activity (ROCK2 (rat); compound 1.0 µM) was 22%, the residual activity (RPS6KA5 KD1 KD2 (human); compound 1.0 µM) was 19% and the residual activity ([2]; compound 1.0 µM) was 28%. For the same molecule, the residual activity (PHKG1 or PHKG2 (rabbit) [4]) was 0%, the residual activity (PRKAA1 or PRKAA2 (rat) [5]) was 1% and the residual activity (PRKACA or PRKACB (cow) [6]) was 39%. For the same molecule, the residual activity (RPS6KA3 KD1 KD2 (rabbit) [12]) was 5%.
Work on `CN1C(=O)C(c2c[nH]c3ccccc23)=C(c2c[nH]c3ccccc23)C1=O` yielded a residual activity (PHKG1 or PHKG2 (rabbit) [4]) of 100%.
`CCCCCCOC(=O)[C@@]1(O)C[C@H]2O[C@]1(C)n1c3ccccc3c3c4c(c5c6ccccc6n2c5c31)C(=O)NC4` gave a residual activity (PHKG1 or PHKG2 (rabbit) [7]) of 0%.
In the case of `O=C1NCc2c1c1c3ccccc3[nH]c1c1[nH]c3ccccc3c21`, the residual activity (PHKG1 or PHKG2 (rabbit) [7]) is reported as 0%.
`COC[C@H]1OC(=O)c2coc3c2[C@@]1(C)C1=C(C3=O)[C@@H]2CCC(=O)[C@@]2(C)C[C@H]1OC(C)=O` was tested, and the residual activity (AKT1 (human)) was 96%, the residual activity (CHEK1 (human); compound 1.0 µM) was 99% and the residual activity ([1]; compound 1.0 µM) was 98%. The residual activity (LCK (human); compound 1.0 µM) was 95%, the residual activity (MAP2K1 (rabbit)) was 96% and the residual activity (MAPK11 (human); compound 1.0 µM) was 74%. It also gave a residual activity (MAPK12 (human); compound 1.0 µM) of 75%, a residual activity (MAPK14 (human)) of 86% and a residual activity (MAPK8 (human); compound 1.0 µM) of 97%. It also gave a residual activity (MAPKAPK2 (human); compound 1.0 µM) of 102%, a residual activity (MAPKAPK5 (human)) of 85% and an IC50 (MYLK (chicken) [13]) of 260 nM. The residual activity (PDPK1 (human); compound 1.0 µM) was 88%, the residual activity (PIK3CG (cow)) was 0% and the residual activity (PRKCA (human); compound 1.0 µM) was 100%. For the same molecule, the residual activity (ROCK2 (rat); compound 1.0 µM) was 91%, the residual activity (RPS6KA5 KD1 KD2 (human); compound 1.0 µM) was 99% and the residual activity ([2]; compound 1.0 µM) was 106%. It also gave a residual activity ([3]; compound 1.0 µM) of 101%, a residual activity (MYLK (chicken) [14]) of 4% and a residual activity (MYLK2 (rabbit)) of 104%. For the same molecule, the residual activity (PHKG1 or PHKG2 (rabbit) [4]) was 100%, the residual activity (PRKAA1 or PRKAA2 (rat) [5]) was 106% and the residual activity (PRKACA or PRKACB (cow) [6]) was 97%. For the same molecule, the residual activity (RPS6KA3 KD1 KD2 (rabbit) [12]) was 92%.
